molecular target: T1, Chk1 (Homo sapiens, UniProt O14757); assay: Chk1 kinase assay: incorporation of γ-33P ATP into immobilized myelin basic protein; format: biochemical; settings: Table 11, Chk1 only; class symbols A-D; read-out: Chk1 IC50
T1 construct: purchased Upstate Biotechnology
T1 sequence (O14757 1-476): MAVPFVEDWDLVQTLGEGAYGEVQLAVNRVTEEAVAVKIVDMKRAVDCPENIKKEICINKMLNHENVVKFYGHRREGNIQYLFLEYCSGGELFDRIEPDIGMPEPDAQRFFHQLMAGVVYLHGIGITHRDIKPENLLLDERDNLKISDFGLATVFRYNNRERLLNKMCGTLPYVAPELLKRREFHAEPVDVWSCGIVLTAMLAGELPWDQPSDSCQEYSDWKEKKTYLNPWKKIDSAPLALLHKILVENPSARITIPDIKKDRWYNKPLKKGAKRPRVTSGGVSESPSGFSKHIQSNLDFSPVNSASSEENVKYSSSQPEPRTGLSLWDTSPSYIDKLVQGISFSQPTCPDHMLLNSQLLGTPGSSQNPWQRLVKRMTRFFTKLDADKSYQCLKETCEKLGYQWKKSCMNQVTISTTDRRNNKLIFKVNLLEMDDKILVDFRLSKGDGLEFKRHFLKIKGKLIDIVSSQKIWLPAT
Outline: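 Read-out is scintillation counting of 33P incorporated into plate-bound myelin basic protein. Chk1 runs at 10 nM enzyme with 10 μM ATP, Chk2 at 20 nM with 30 μM ATP, each for 1 hour at room temperature. Duplicate points; IC50 taken as 50% activity reduction, Ki computed from IC50.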

Row | IC50 [nM] | Structure (SMILES)
1 | < 50 | CCN(CC)CCOc1cccc(-c2cnc(N)c(C(=O)N[C@H]3CCCNC3)n2)c1 [Example 959, 3-amino-6-(3-{[2-(diethylamino)ethyl]oxy}phenyl)-N-[(3S)-piperidin-3-yl]pyrazine-2-carboxamide]
2 | < 50 | COC(=O)c1ccc(CNC(=O)c2cccc(-c3cnc(N)c(C(=O)N[C@H]4CCCNC4)n3)c2)cc1 [Example 869, methyl 4-[({[3-(5-amino-6-{[(3S)-piperidin-3-ylamino]carbonyl}pyrazin-2-yl)phenyl]carbonyl}amino)methyl]benzoate]
3 | 50 to 1000 | Nc1ncc(-c2cccc(C(=O)NCc3c(F)ccc(F)c3F)c2)nc1C(=O)N[C@H]1CCNC1 [Example 815, 3-amino-N-[(3S)-pyrrolidin-3-yl]-6-[3-({[(2,3,6-trifluorophenyl)methyl]amino}carbonyl)phenyl]pyrazine-2-carboxamide]
4 | < 50 | Nc1ncc(-c2cccc(C(=O)NCc3cccc(F)c3F)c2)nc1C(=O)N[C@H]1CCCNC1 [Example 1017, 3-amino-6-[3-({[(2,3-difluorophenyl)methyl]amino}carbonyl)phenyl]-N-[(3S)-piperidin-3-yl]pyrazine-2-carboxamide]
5 | < 50 | Cc1cc(Br)cc(NC(=O)NCc2cccc(-c3cnc(N)c(C(=O)N[C@H]4CCCNC4)n3)c2)c1 [Example 921, 3-amino-6-{3-[({[(3-bromo-5-methylphenyl)amino]carbonyl}amino)methyl]phenyl}-N-[(3S)-piperidin-3-yl]pyrazine-2-carboxamide]
6 | < 50 | Cc1ccccc1CC(=O)Nc1cccc(-c2cnc(N)c(C(=O)N[C@H]3CCCNC3)n2)c1 [Example 975, 3-amino-6-(3-{[(2-methylphenyl)acetyl]amino}phenyl)-N-[(3S)-piperidin-3-yl]pyrazine-2-carboxamide]
7 | ≥ 10000 | Nc1ncc(-c2cccc(CN[C@H]3CCc4ccccc43)c2)nc1-c1nc(C2CCCNC2)cs1 (stereo partly drawn) [Example 824, 5-(3-{[(1S)-2,3-dihydro-1H-inden-1-ylamino]methyl}phenyl)-3-(4-piperidin-3-yl-1,3-thiazol-2-yl)pyrazin-2-amine]
8 | 1000 to 10000 | CN1CCCC(c2n[nH]c(-c3nc(-c4cccc(C(=O)NCc5c(F)cccc5Cl)c4)cnc3N)n2)C1 (centres unmarked) [Example 818, 3-{5-amino-6-[3-(1-methylpiperidin-3-yl)-1H-1,2,4-triazol-5-yl]pyrazin-2-yl}-N-[(2-chloro-6-fluorophenyl)methyl]benzamide]

same assay, conditions: Table 11; Chk1 only; read-out: Chk1 IC50

Row | IC50 [nM] | Structure (SMILES)
9 | 1000 to 10000 | Nc1ncc(-c2cccc(C(=O)NCc3ccccc3)c2)nc1C(=O)NCCNC(=O)c1ccncc1 [Example 658, 3-amino-6-(3-{[(phenylmethyl)amino]carbonyl}phenyl)-N-{2-[(pyridin-4-ylcarbonyl)amino]ethyl}pyrazine-2-carboxamide]
10 | ≥ 10000 | N#Cc1ccc(N/N=C/c2nc(-c3cccc(C(=O)NCc4ccccc4)c3)cnc2N)cc1 [Example 679, 3-(5-amino-6-{(E)-[(4-cyanophenyl)hydrazono]methyl}pyrazin-2-yl)-N-(phenylmethyl)benzamide]
11 | < 50 | Nc1ncc(-c2cccc(CN[C@H]3CCc4ccccc43)c2)nc1-c1nc([C@H]2CCCNC2)n[nH]1 [Example 704, 5-(3-{[(1S)-2,3-dihydro-1H-inden-1-ylamino]methyl}phenyl)-3-{3-[(3S)-piperidin-3-yl]-1H-1,2,4-triazol-5-yl}pyrazin-2-amine]
12 | ≥ 10000 | C/C(=N\Nc1ccc(Cl)cc1)c1nc(-c2cccc(C(=O)NCc3ccccc3)c2)cnc1N [Example 603, 3-{5-amino-6-[(1E)-N-(4-chlorophenyl)ethanehydrazonoyl]pyrazin-2-yl}-N-(phenylmethyl)benzamide]
13 | 1000 to 10000 | Nc1ncc(-c2cccc(C(=O)NCc3ccccc3)c2)nc1/C=N/NCCO [Example 677, 3-(5-amino-6-{(E)-[(2-hydroxyethyl)hydrazono]methyl}pyrazin-2-yl)-N-(phenylmethyl)benzamide]
14 | ≥ 10000 | Nc1ncc(-c2cccc(C(=O)NCc3ccccc3)c2)nc1C(=O)NCCNS(=O)(=O)c1cccc2cccnc12 [Example 662, 3-amino-6-(3-{[(phenylmethyl)amino]carbonyl}phenyl)-N-{2-[(quinolin-8-ylsulfonyl)amino]ethyl}pyrazine-2-carboxamide]
15 | < 50 | CNC(=O)c1nc(-c2cccc(CN[C@H]3c4ccccc4C[C@H]3O)c2)cnc1N [Example 453, 3-amino-6-[3-({[(1S,2R)-2-hydroxy-2,3-dihydro-1H-inden-1-yl]amino}methyl)phenyl]-N-methylpyrazine-2-carboxamide]
16 | ≥ 10000 | CCn1nc(-c2nc(-c3cccc(C(=O)N[C@H]4CCc5ccccc54)c3)cnc2N)nc1C1CCCN(C(=O)OCc2ccccc2)C1 (stereo partly drawn) [Example 722, phenylmethyl 3-{3-[3-amino-6-(3-{[(1S)-2,3-dihydro-1H-inden-1-ylamino]carbonyl}phenyl)pyrazin-2-yl]-1-ethyl-1H-1,2,4-triazol-5-yl}piperidine-1-carboxylate]

same assay, conditions: read-out: Chk1 IC50

Row | IC50 [nM] | Structure (SMILES)
17 | 50 to 1000 | CNC(=O)c1nc(-c2ccc(C(=O)N[C@H]3CCc4ccccc43)cc2)cnc1N [Example 154, 3-amino-6-(4-{[(1S)-2,3-dihydro-1H-inden-1-ylamino]carbonyl}phenyl)-N-methylpyrazine-2-carboxamide]
18 | 50 to 1000 | CNC(=O)c1nc(-c2ccc(C(=O)NCc3ccc(C)cc3)cc2)cnc1N [Example 153, 3-amino-N-methyl-6-[4-({[(4-methylphenyl)methyl]amino}carbonyl)phenyl]pyrazine-2-carboxamide]
19 | 50 to 1000 | CNC(=O)c1nc(-c2cccc(C(=O)N[C@@H]3CCN(Cc4ccc(Cl)cc4Cl)C3)c2)cnc1N [Example 360, 3-amino-6-{3-[({(3R)-1-[(2,4-dichlorophenyl)methyl]pyrrolidin-3-yl}amino)carbonyl]phenyl}-N-methylpyrazine-2-carboxamide]
20 | < 50 | CNC(=O)c1nc(-c2cccc(C(=O)NCc3ccc(-c4ccccc4)cc3)c2)cnc1N [Example 182, 3-amino-6-(3-{[(biphenyl-4-ylmethyl)amino]carbonyl}phenyl)-N-methylpyrazine-2-carboxamide]
21 | 50 to 1000 | CNC(=O)c1nc(-c2cccc(C(=O)NCc3ccc(C)c(Cl)c3)c2)cnc1N [Example 303, 3-amino-6-[3-({[(3-chloro-4-methylphenyl)methyl]amino}carbonyl)phenyl]-N-methylpyrazine-2-carboxamide]
22 | 1000 to 10000 | CCOC(=O)N1CCN(CCOc2cccc(-c3cnc(N)c(C(=O)NC)n3)c2)CC1 [Example 195, ethyl 4-{2-[(3-{5-amino-6-[(methylamino)carbonyl]pyrazin-2-yl}phenyl)oxy]ethyl}piperazine-1-carboxylate]
23 | 50 to 1000 | CNC(=O)c1nc(-c2ccc(OC3CCCCO3)cc2)cnc1N (centres unmarked) [Example 235, 3-amino-N-methyl-6-[4-(tetrahydro-2H-pyran-2-yloxy)phenyl]pyrazine-2-carboxamide]
24 | 50 to 1000 | CNC(=O)c1nc(-c2cccc(OCCN3CCN(CCO)CC3)c2)cnc1N [Example 193, 3-amino-6-[3-({2-[4-(2-hydroxyethyl)piperazin-1-yl]ethyl}oxy)phenyl]-N-methylpyrazine-2-carboxamide]
25 | 50 to 1000 | CNC(=O)c1nc(-c2cccc(NC(=O)CCc3ccccc3)c2)cnc1N [Example 159, 3-amino-N-methyl-6-{3-[(3-phenylpropanoyl)amino]phenyl}pyrazine-2-carboxamide]
26 | 50 to 1000 | CNC(=O)c1nc(-c2cccc(C(=O)NCc3ccccc3-c3ccncc3)c2)cnc1N [Example 390, 3-amino-N-methyl-6-[3-({[(2-pyridin-4-ylphenyl)methyl]amino}carbonyl)phenyl]pyrazine-2-carboxamide]
27 | 50 to 1000 | CNC(=O)c1nc(-c2cccc(C(=O)NCc3c(Cl)cccc3Oc3ccccc3)c2)cnc1N [Example 247, 3-amino-6-{3-[({[2-chloro-6-(phenyloxy)phenyl]methyl}amino)carbonyl]phenyl}-N-methylpyrazine-2-carboxamide]
28 | 50 to 1000 | CCCCCc1ccc(C(=O)NCc2cccc(-c3cnc(N)c(C(=O)NC)n3)c2)cc1 [Example 351, 3-amino-N-methyl-6-[3-({[(4-pentylphenyl)carbonyl]amino}methyl)phenyl]pyrazine-2-carboxamide]
29 | 50 to 1000 | CNC(=O)c1nc(-c2cccc(CNC(=O)c3ncccc3O)c2)cnc1N [Example 335, 3-amino-6-[3-({[(3-hydroxypyridin-2-yl)carbonyl]amino}methyl)phenyl]-N-methylpyrazine-2-carboxamide]
30 | 1000 to 10000 | C/N=C(\C)c1cccc(-c2cnc(N)c(C(=O)NC)n2)c1 [Example 59, 3-amino-N-methyl-6-{3-[(1E)-N-methylethanimidoyl]phenyl}pyrazine-2-carboxamide]
31 | 50 to 1000 | CNC(=O)c1nc(-c2cccc(NC(=O)c3ccc(C)cc3)c2)cnc1N [Example 119, 3-amino-N-methyl-6-(3-{[(4-methylphenyl)carbonyl]amino}phenyl)pyrazine-2-carboxamide]
32 | 50 to 1000 | CNC(=O)c1nc(-c2cccc(C(=O)NCc3ccc(C(F)(F)F)nc3)c2)cnc1N [Example 406, 3-amino-N-methyl-6-{3-[({[6-(trifluoromethyl)pyridin-3-yl]methyl}amino)carbonyl]phenyl}pyrazine-2-carboxamide]

From patent US7704995B2 (Exelixis, Inc., priority 2003, dated 2010)
